Laboratory results: ChEMBL document CHEMBL1201862, “PubChem BioAssay data set” (2004)
Calls of active or inactive are those of the source.

How the values were obtained:
[1] = (§1) Late stage assay provider results from the probe development effort to identify inhibitors of Protein Phosphatase Methylesterase 1 (PME-1): luminescence-based biochemical dose response assay to determine cytotoxicity of inhibitor compounds. [Related pubchem assays (depositor defined):AID2130, AID2143, AID2171, AID2174, AID2177, AID2232, AID2233, AID2291, AID2363, AID2365, AID2366, AID2368, AID2369, AID2371, AID463124, AID463130, AID463131, AID463132, AID463146, AID463149] Panel member name: Fetal Calf Serum; type: toxicity
[2] = as §1, with “Serum-free Media” for “Fetal Calf Serum”; type: toxicity
H9c2 = assay: cells; type: functional, cell-based; settings: Rattus norvegicus, H9c2, Myocardium;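 note: confirmatory concentration-response retest of ultra-high-throughput screening hits for modulation of myocardial damage; cell death induced by hydrogen peroxide oxidative stress; compound pretreatment for 60 min then peroxide exposure for 2 h; potency is for protecting the cells against peroxide damage rather than for killing them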
Fatty acid synthase [3] = target: T1, Fatty acid synthase (Homo sapiens, UniProt P49327); assay: FAS thioesterase domain inhibitors, dose response, biochemical, endpoint fluorescence intensity, uHTS hits (AID 624327); type: functional;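 note: fluorescence from hydrolysis of an O-methyl fluorescein acyl ester substrate by the enzyme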
T1 sequence (P49327 whole entry, the tested form may be a part): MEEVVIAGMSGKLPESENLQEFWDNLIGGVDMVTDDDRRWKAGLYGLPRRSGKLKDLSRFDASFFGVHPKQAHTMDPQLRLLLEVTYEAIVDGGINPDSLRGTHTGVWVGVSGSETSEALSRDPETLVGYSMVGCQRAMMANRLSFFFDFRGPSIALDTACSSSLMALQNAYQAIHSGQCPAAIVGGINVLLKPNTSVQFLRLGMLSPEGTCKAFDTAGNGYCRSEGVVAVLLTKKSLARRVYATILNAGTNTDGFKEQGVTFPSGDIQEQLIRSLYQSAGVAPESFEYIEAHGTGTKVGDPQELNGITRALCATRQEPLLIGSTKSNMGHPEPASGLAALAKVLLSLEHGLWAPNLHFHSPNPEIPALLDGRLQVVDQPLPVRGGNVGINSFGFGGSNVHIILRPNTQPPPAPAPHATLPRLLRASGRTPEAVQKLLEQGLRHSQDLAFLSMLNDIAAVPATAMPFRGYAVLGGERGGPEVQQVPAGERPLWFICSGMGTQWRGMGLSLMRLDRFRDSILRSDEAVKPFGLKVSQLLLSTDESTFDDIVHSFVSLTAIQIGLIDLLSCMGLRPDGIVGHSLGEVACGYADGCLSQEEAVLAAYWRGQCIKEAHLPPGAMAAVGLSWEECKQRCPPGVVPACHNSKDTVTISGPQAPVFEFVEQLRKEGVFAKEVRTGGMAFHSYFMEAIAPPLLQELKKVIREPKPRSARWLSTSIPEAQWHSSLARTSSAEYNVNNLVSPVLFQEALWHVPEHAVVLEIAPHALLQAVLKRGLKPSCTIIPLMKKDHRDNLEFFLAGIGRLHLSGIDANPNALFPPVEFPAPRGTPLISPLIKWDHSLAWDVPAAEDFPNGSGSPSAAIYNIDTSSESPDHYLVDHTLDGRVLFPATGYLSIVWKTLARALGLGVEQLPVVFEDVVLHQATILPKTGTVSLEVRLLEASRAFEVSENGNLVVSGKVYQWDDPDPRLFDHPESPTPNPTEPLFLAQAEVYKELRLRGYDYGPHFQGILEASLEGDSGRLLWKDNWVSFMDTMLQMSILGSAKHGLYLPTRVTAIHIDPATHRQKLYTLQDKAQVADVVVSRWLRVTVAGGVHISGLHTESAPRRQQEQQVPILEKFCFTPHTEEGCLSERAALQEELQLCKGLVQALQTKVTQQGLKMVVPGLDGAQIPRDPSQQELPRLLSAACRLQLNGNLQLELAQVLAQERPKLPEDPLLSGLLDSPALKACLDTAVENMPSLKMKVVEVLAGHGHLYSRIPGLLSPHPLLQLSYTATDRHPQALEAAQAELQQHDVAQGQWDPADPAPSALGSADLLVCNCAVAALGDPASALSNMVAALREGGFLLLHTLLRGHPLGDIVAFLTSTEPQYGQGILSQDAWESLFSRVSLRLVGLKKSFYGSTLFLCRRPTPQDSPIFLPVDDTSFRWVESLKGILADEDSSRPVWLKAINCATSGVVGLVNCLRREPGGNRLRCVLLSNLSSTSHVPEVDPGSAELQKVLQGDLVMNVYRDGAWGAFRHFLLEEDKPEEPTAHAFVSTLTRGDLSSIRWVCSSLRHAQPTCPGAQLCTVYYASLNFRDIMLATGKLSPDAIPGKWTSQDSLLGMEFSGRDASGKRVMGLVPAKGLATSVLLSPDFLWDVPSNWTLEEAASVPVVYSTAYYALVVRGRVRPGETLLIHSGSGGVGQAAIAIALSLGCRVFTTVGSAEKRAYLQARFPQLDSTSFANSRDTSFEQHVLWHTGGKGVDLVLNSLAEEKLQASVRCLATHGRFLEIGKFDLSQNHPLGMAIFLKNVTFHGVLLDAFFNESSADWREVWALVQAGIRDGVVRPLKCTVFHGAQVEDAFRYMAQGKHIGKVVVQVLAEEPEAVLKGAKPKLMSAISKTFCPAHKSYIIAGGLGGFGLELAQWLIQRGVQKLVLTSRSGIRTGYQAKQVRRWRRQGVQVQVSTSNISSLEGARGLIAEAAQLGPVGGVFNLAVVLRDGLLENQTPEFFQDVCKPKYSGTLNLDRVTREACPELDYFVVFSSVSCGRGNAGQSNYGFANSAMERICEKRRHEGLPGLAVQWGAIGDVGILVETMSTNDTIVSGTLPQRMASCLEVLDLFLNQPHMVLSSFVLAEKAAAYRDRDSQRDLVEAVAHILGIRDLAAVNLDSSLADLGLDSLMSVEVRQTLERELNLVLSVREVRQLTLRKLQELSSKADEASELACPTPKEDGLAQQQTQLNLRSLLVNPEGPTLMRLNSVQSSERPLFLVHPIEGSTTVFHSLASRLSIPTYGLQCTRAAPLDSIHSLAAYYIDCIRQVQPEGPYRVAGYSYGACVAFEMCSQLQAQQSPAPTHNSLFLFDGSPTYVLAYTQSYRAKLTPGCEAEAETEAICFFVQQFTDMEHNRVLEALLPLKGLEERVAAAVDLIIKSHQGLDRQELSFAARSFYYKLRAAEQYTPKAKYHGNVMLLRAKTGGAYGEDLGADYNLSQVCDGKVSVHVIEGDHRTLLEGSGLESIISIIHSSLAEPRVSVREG

Fatty acid synthase [4] = target: T1, Fatty acid synthase; assay: FAS thioesterase domain inhibitors, dose response, biochemical, kinetic fluorescence intensity (AID 624326); type: functional;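 note: rate of fluorescence rise from hydrolysis of a fluorogenic O-methyl fluorescein ester substrate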
[5] = insulin promoter down-regulators in MIN6 cells, imaging, high-content screening, mouse beta cells (AID 1628); type: functional
[6] = cytotoxicity in MIN6 insulinoma cells, dose response, cytotoxicity control, cell-based, mouse insulinoma (AID 2122); type: functional;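 note: confirmatory high-throughput counterscreen run to flag cytotoxic compounds; mouse MIN-6 beta cells carrying an insulin promoter eGFP reporter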
Ion channel NompC = Ion channel NompC (Danio rerio, UniProt Q7T1G6); assay: Dose response cell-based high-throughput screening assay for agonists of the transient receptor potential channel N1 (TRPN1). [Related pubchem assays (depositor defined):AID1424, AID1448]; type: functional
Mucolipin-3 = Mucolipin-3 (Homo sapiens, UniProt Q8TDD5); assay: Fluorescence counterscreen assay for […] agonists: dose response cell-based high-throughput screening assay to identify agonists of the transient receptor potential channel ML3 (TRPML3). [Related pubchem assays: 1424, 1448 ]; type: functional
Chain of Mucolipin-3 (Q8TDD5 whole entry, the tested form may be a part): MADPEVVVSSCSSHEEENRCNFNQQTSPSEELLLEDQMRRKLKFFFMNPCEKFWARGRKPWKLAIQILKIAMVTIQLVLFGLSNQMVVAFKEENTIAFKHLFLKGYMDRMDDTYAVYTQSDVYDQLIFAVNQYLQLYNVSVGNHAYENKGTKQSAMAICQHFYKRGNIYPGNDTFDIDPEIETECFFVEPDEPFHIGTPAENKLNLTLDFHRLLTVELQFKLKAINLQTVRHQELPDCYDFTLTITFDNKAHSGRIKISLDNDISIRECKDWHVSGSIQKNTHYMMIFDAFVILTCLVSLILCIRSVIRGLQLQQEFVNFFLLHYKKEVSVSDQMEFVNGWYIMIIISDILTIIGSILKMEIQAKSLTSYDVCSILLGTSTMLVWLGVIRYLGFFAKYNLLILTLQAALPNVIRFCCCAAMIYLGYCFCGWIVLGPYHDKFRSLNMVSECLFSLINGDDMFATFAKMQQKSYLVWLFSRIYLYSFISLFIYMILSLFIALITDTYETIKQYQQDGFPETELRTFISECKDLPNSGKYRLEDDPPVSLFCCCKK

[7] = target: T2, Carboxy-terminal domain RNA polymerase II polypeptide A small phosphatase 1 (Homo sapiens, UniProt Q9GZU7); assay: inhibitors of CTDSP1, concentration-response testing, biochemical assay, absorbance-based, actives from ultra-high-throughput screening (AID 540297); type: functional
T2 sequence (Q9GZU7 whole entry): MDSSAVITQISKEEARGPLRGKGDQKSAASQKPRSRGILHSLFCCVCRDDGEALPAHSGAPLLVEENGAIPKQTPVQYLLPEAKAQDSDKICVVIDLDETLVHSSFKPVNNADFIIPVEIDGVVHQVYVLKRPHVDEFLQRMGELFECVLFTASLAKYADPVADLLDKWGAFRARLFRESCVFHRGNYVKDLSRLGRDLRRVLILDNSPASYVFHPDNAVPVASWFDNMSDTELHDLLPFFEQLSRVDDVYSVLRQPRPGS

[8] = target: T3, Tyrosine-protein phosphatase non-receptor type 7 (Homo sapiens, UniProt P35236); type: functional
T3 sequence (P35236 whole entry): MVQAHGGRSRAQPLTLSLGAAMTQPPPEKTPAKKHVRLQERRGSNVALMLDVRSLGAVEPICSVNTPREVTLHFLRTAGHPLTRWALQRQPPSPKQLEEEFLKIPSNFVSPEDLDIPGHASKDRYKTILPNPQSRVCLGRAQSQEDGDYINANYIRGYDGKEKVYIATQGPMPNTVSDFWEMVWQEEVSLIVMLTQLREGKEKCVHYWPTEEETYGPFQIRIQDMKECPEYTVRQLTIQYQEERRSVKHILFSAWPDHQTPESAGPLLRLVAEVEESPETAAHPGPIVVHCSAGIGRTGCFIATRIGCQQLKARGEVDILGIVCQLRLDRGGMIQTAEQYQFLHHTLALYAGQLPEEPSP

[9] = target: T4, Tyrosine-protein phosphatase non-receptor type 22 (Homo sapiens, UniProt Q9Y2R2); type: functional
T4 sequence (Q9Y2R2 whole entry): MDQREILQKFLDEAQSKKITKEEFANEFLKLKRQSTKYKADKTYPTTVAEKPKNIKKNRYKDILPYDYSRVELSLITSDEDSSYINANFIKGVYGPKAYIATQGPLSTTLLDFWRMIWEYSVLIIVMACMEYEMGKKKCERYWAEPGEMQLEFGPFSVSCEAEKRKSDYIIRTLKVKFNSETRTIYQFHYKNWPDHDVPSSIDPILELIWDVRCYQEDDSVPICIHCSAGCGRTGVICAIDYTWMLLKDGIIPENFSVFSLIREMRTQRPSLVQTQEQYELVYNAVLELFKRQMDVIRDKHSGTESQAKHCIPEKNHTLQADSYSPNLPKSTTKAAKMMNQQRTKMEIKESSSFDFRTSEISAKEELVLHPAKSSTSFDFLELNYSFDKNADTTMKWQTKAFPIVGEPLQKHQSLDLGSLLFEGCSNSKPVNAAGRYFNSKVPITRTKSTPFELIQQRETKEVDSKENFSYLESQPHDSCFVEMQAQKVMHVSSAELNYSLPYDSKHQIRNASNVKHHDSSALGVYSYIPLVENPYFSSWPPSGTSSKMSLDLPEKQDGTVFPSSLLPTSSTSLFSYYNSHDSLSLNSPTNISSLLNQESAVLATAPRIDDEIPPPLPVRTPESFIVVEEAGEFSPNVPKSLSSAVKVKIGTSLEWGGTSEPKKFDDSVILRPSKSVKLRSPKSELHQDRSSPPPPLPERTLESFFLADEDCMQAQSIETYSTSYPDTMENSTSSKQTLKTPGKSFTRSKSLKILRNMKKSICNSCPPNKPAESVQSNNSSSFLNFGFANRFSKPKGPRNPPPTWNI

[10] = target: T4, Tyrosine-protein phosphatase non-receptor type 22; type: functional; remark: listed apart in the source
[11] = target: T5, G-protein coupled receptor 55 (Homo sapiens, UniProt Q9Y2T6); assay: GPR55 antagonists blocking LPI-driven arrestin recruitment, primary screen, imaging, U2OS, beta-arrestin-GFP, LPI agonist (AID 2013); type: functional;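 note: antagonist potency measured as reduced agonist-driven arrestin aggregation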
T5 sequence (Q9Y2T6 whole entry): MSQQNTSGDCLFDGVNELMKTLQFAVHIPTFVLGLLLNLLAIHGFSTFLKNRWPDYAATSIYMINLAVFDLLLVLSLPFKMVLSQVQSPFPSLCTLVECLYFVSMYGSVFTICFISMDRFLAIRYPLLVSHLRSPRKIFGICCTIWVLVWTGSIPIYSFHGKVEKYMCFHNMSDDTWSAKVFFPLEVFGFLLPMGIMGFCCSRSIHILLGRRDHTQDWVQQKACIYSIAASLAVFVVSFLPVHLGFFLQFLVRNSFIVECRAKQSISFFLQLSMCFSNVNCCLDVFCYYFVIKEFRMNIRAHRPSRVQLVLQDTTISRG

Cannabinoid receptor 1 [12] = target: T6, Cannabinoid receptor 1 (Homo sapiens, UniProt P21554); assay: SAR analysis of antagonists of the Cannabinoid Receptor 1 using an Image-Based Assay - Set 2. [Related pubchem assays (depositor defined):AID2013, AID2026]; type: functional
T6 sequence (P21554 whole entry): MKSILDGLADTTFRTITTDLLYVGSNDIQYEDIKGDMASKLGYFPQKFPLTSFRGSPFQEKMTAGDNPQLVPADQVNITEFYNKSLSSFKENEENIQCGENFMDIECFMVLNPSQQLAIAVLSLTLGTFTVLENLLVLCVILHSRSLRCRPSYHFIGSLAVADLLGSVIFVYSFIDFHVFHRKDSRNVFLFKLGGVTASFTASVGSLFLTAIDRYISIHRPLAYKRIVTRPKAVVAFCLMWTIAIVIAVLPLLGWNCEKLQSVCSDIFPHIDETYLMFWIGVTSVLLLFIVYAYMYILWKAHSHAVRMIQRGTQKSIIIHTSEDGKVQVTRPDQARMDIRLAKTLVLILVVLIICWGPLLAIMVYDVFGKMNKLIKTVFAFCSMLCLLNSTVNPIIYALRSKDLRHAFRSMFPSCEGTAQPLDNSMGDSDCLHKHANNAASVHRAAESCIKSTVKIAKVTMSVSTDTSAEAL

[13] = target: T7, G-protein coupled receptor 35 (Homo sapiens, UniProt Q9HC97); assay: SAR analysis of Agonists of the GPR35 Receptor using an Image-Based Assay - Set 2. [Related pubchem assays (depositor defined):AID2013, AID2026]; type: functional
T7 sequence (Q9HC97 whole entry): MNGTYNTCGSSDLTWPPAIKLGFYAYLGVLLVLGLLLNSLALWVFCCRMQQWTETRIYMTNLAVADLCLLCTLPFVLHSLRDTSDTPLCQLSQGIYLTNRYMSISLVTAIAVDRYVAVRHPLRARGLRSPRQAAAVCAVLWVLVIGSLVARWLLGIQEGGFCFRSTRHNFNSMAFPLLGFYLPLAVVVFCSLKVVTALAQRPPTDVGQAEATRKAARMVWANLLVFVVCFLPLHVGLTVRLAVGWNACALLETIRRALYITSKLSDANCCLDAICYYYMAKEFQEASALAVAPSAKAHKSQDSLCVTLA

Cannabinoid receptor 2 [14] = target: T8, Cannabinoid receptor 2 (Homo sapiens, UniProt P34972); assay: SAR analysis of antagonists of the Cannabinoid Receptor 2 using an Image-Based Assay. [Related pubchem assays (depositor defined):AID2013, AID2026]; type: functional
T8 sequence (P34972 whole entry): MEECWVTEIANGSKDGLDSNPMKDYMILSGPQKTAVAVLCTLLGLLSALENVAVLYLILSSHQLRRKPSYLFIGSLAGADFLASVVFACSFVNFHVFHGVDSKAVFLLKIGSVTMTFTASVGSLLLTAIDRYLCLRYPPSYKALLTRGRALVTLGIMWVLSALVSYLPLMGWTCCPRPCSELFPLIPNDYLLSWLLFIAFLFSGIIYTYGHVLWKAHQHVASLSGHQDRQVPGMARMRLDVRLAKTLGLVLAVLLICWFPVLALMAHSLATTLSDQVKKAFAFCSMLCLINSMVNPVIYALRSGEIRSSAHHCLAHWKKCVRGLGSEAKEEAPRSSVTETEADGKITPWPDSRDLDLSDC

Cannabinoid receptor 1 [15] = target: T6, Cannabinoid receptor 1; assay: SAR analysis of agonists of the Cannabinoid Receptor 1 using an Image-Based Assay - Set 2. [Related pubchem assays (depositor defined):AID2013, AID2026]; type: functional
[16] = target: T7, G-protein coupled receptor 35; assay: SAR analysis of Antagonists of the GPR35 Receptor using an Image-Based Assay - Set 3. [Related pubchem assays (depositor defined):AID2013, AID2026]; type: functional
[17] = target: T5, G-protein coupled receptor 55; assay: GPR55 antagonist potency of analogs, SAR follow-up, imaging, U2OS, beta-arrestin-GFP, LPI agonist, set 2 (AID 2820); type: functional
Cannabinoid receptor 2 [18] = target: T8, Cannabinoid receptor 2; assay: SAR analysis of agonists of the Cannabinoid Receptor 2 using an Image-Based Assay. [Related pubchem assays (depositor defined):AID2013, AID2026]; type: functional
[19] = target: Sphingosine 1-phosphate receptor 1 (Homo sapiens, UniProt P21453); assay: Fluorescence-based counterscreen assay for S1P4 agonists: Cell-based dose response high throughput screening assay to identify agonists of the Sphingosine 1-Phosphate Receptor 1 (S1P1). [Related pubchem assays (depositor defined):AID1509, AID1523, AID1801, AID463107, AID463118, AID463119, AID463122, AID463123, AID463129, AID463225, AID504400, AID504460]; type: functional
Chain of Sphingosine 1-phosphate receptor 1 (P21453 whole entry): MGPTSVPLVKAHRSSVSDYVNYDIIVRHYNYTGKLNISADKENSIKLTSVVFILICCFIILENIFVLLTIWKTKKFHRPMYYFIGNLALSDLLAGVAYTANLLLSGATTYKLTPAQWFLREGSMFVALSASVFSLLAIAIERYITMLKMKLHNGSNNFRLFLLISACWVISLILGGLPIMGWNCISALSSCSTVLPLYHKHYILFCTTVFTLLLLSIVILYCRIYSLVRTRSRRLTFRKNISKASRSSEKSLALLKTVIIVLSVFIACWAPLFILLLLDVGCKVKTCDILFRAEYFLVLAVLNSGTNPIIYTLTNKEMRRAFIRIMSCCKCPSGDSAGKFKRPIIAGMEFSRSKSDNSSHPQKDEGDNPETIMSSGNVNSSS

[20] = target: Sphingosine 1-phosphate receptor 4 (Homo sapiens, UniProt O95977); assay: Fluorescence dose response cell-based high throughput screening assay for agonists of the Sphingosine 1-Phosphate Receptor 4 (S1P4). [Related pubchem assays: 1509 (Primary screen.), 1523 (Confirmation screen in triplicates.)]; type: functional

Q: With COC(=O)N1C(=O)[C@](c2ccccc2)(C2CCCCC2)N1C(=O)OC as the compound, how does the CC50 [1] read?
A: > 10 µM (inactive)

Q: What about the CC50 [2] of the same compound?
A: > 10 µM (inactive)

Q: What about the IC50 (H9c2) of the same compound?
A: 25.5 µM (active)

Q: What about the IC50 (Fatty acid synthase [3]) of the same compound?
A: 0.929 µM (active)

Q: What about the IC50 (Fatty acid synthase [4]) of the same compound?
A: 0.968 µM (active)

Q: Which IC50 [5] does the source give for CCCc1ccc(C(=O)NC(=O)c2ccccc2O)cc1 here?
A: 4.87 µM (active)

Q: What about the IC50 [6] of the same compound?
A: 3.97 µM (active)

Q: What about the EC50 (Ion channel NompC) of the same compound?
A: > 3.32 µM (inactive)

Q: And the EC50 (Mucolipin-3)?
A: 14.7 µM (not active)

Q: And the IC50 [7]?
A: 8.68 µM (active)

Q: With Cc1ccc2nc(O)cc(C(=O)OCC(=O)c3ccccc3)c2c1 as the compound, how does the IC50 [8] read?
A: > 79.4 µM (inactive)

Q: What about the IC50 [9] of the same compound?
A: > 79.4 µM (inactive)

Q: What about the IC50 [10] of the same compound?
A: > 79.4 µM (inactive)

Q: What does the source list for Cc1cccn2c(=O)c3cc(C(=O)NCc4ccco4)c(=N)n(C4CCCC4)c3nc12?
A: IC50 [11]: 1.68 µM (active); IC50 (Cannabinoid receptor 1 [12]): > 32 µM (inactive); EC50 [13]: > 32 µM (inactive); IC50 (Cannabinoid receptor 2 [14]): > 32 µM (inactive); EC50 (Cannabinoid receptor 1 [15]): > 32 µM (inactive); IC50 [16]: > 32 µM (inactive); IC50 [17]: 0.407 µM (active); EC50 (Cannabinoid receptor 2 [18]): > 32 µM (inactive)

Q: With CCOC(=O)c1c(-n2c(C)cc(C=O)c2C)sc2c1CCCC2 as the compound, how does the EC50 [19] read?
A: > 49.8 µM (inactive)

Q: What about the EC50 [20] of the same compound?
A: > 16.6 µM (not active)
